Values quoted from earlier work as cited in US20090306103A1, “PYRIDONECARBOXAMIDE DERIVATIVES USEFUL IN TREATING HYPER-PROLIFERATIVE AND ANGIOGENESIS DISORDERS” (priority 2006, published 2009).

What was measured:
[1] = test system: Bcr-Abl E255K mutant; conditions: read-out: IC50 against E255K mutant; biochemical assay
[2] = test system: Bcr-Abl; conditions: greater potency than Imatinib
[3] = test system: Bcr-Abl Imanitib resistant mutations

Cc1cn(-c2cc(NC(=O)c3ccc(C)c(Nc4nccc(-c5cccnc5)n4)c3)cc(C(F)(F)F)c2)cn1 [AMN-107]
IC50 [1]: 0.4 µM
potency of Bcr-Abl kinase inhibition relative to Imatinib [2]: 20 fold
inhibition of Imanitib resistant mutations [3]: inhib most Imanitib resistant mutations except for T315I
